Data on one compound can be found in patent US20050124690A1, “Pharmaceutical composition for the treatment of seborrhea containing 4-hydroxy-5-methoxy-4-[2-methyl-3(3-methyl-2-butenyl)-2-oxiranyl]-1-oxaspiro[2,5]octan-6-one” (priority 2002, published 2005).

Some results are limits rather than exact numbers.

The subject of data set [1] is Pityrosporum ovale. In words: Minimum inhibition concentration (MIC) on Sabouraud's dextrose solid medium. The settings on record: Malassezia furfur; solid medium with 1% corn oil and 0.1% Tween-80; 30° C., 3 to 5 days; naked eye. In kind it is cell-based. Here is the method:
For use in this test, P. ovale was cultured in Sabouraud's dextrose solid medium containing 1% corn oil and 0.1% Tween-80 at 30° C. for 2 days. After Sabouraud's dextrose solid medium containing 1% corn oil and 0.1% Tween-80 was aliquotted onto 6 cm plane plates, 4-hydroxy-5-methoxy-4-[2-methyl-3-(3-methyl-2-butenyl)-2-oxiranyl]-1-oxaspiro[2,5]octan-6-one was added in various concentration. When the medium was hardened, 150 μl of the cultured P. ovale was smeared onto the medium, followed by incubation at 30° C. for 3 to 5 days. Observing with naked eye, a minimum concentration capable of inhibiting the growth of the fungus was determined as MIC (Minimum Inhibition Concentration).
MIC versus P. ovale of 4-hydroxy-5-methoxy-4-[2-methyl-3-(3-methyl-2-butenyl)-2-oxiranyl]-1-oxaspiro[2,5]octan-6-one is given in Table 1, below.

Data set [2] relates to Pityrosporum ovale. In words: Paper disc diffusion test for antifungal activity. The settings on record: 45 μl of 0.1% acetone solution on paper disc; 30° C., 3 days. In kind it is cell-based. Here is the method: A paper disc diffusion method was used to investigate antifungal activity against a fungus, Pityrosporum ovale. Sabouraud's dextrose solid medium containing 1% of corn oil and 0.1% Tween-80 was aliquotted onto 87 mm plane plates, and allowed to harden. In order to examine antifungal activity against P. ovale, […] of P. ovale cultured in Sabouraud's dextrose solid medium at 30° C. for 2 days was smeared onto the plates, and then dried. 45 μl of an acetone solution containing 0.1% of 4-hydroxy-5-methoxy-4-[2-methyl-3-(3-methyl-2-butenyl)-2-oxiranyl]-1-oxaspiro[2,5]octan-6-one was aliquated onto paper discs, and, after completely evaporating off the acetone, put onto the P. ovale-smeared medium. Plates not treated with 4-hydroxy-5-methoxy-4-[2-methyl-3-(3-methyl-2-butenyl)-2-oxiranyl]-1-oxaspiro[2,5]octan-6-one were used as controls. Thereafter, incubation was carried out at 30° C. for 3 days, and it was observed whether a growth inhibition area formed around the discs or not.

Data set [3] concerns four-week old female rats. In words: Acute dermal toxicity test. The settings on record: 4000 mg/kg applied to about 10% of body surface area of shaved rats; observation for 15 days. In kind it is in vivo. Here is the method: 4-hydroxy-5-methoxy-4-[2-methyl-3-(3-methyl-2-butenyl)-2-oxiranyl]-1-oxaspiro[2,5]octan-6-one, which was isolated from the culture filtrate and then purified, was tested for acute dermal toxicity using four-week old female rats, according to the standards provided by the Korean Food & Drug Administration. After the rats were shaved, 4000 mg/kg (body weight) of the compound was uniformly applied to about 10% of body surface area of rats.

Compound `COC1C(=O)CCC2(CO2)C1(O)C1(C)OC1CC=C(C)C` (stereo not drawn) [4-hydroxy-5-methoxy-4-[2-methyl-3-(3-methyl-2-butenyl)-2-oxiranyl]-1-oxaspiro[2,5]octan-6-one] had an MIC in data set [1] of less than 2 µg/mL. Further, in data set [2], the “antifungal activity against P. ovale (growth inhibition area around the discs)” value was “found to have antifungal activity”. Moreover, in data set [3], the “irritation, such as erythema or crusting” value was “not detected irritation”.
